Source: patent US6794371B1, “Aminoalkylenephosphonates for treatment of bone disorders” (The Dow Chemical Company, priority 1999, dated 2004)

Test system: ovariectomized rats (bone mineral density)
Assay: Ovariectomized rat osteoporosis model, bone mineral density by dual energy X-ray absorptiometry (DEXA) (Example 2)
Settings: 5 mg/kg
Procedure: Eleven week old Female Sprague-Dawley laboratory rats (75) were fed a commercial rat diet and were allowed to drink water ad libitum. They were housed in pairs in an air-conditioned environment, and were allowed to enjoy 14 hours of illumination per day. Ten rats were sham-operated and were used as “non-osteopenic” control rats. All of the other rats were ovariectomized at 12 weeks of age. All surgeries were done under injectable anesthesia. […] The remaining rats were given various phosphonate compounds in groups of ten.
The rats were given doses three times during the first week and once a week thereafter.
All other compounds were dosed at 5 mg/kg. In this study, bone mineral density was determined by dual energy X-ray absorptiometry (DEXA).

| SMILES | bone mineral density (BMD) over the study period, relative to OVX control group |
| --- | --- |
| O=P(O)(O)CN1Cc2cccc(n2)CN(CP(=O)(O)O)Cc2cccc(n2)C1 [BP2MP, N,N′-bis(methylenephosphonic acid)-2,11-diaza[3.3](2,6)pyridinophane] | look even better |
| O=P(O)(O)CN(Cc1ccccn1)CP(=O)(O)O [AMPDMP, N,N-bis(methylenephosphonic acid)-2-(aminomethyl)pyridine] | look even better |
